Paper PMC9577195, “Pharmacokinetics, bioavailability, and plasma protein binding study of glytrexate, a novel multitarget antifolate” (Frontiers in Pharmacology, 2022)
Entries after “also recorded” stand apart in the source; their conditions may differ.

Tests used:
[1] = Plasma protein binding rate by ultrafiltration, human plasma; type: in vitro ADME
Procedure: (§1) The glytrexate stock solution was diluted with 20% methanol (1% formic acid) to three mass concentrations of 50, 100, and 200 μg/ml for use. One hundred microliters of glytrexate solution of the corresponding concentration (3 duplicates each in parallel) was added to 900 μl of rat/human plasma, vortexed and mixed well to prepare plasma samples with plasma concentrations of 5, 10, and 20 μg/ml.
(§2) The plasma sample was placed in a constant temperature water bath at 37°C for a certain period to obtain an incubation solution. After the incubation solution was removed, it was placed on ice to maintain a low temperature, transferred to a filtrate tube (500 μl), and placed in a low-temperature refrigerated centrifuge at 4°C and 14,000 rpm for 20 min to obtain filtrate.
(§3) The test tube containing the drug concentration was incubated in a constant temperature water bath at 37°C. Each sample was obtained at 10 min, 30 min, 60 min, 120 min, 240 min, and 360 min and the drug concentration before and after ultrafiltration was determined. The plasma protein binding rate (%) = [(Cincubation solution-CUltrafiltrate)/Cincubation solution]×100%. GraphPad Prism 8 software was used to perform a one-way analysis of variance on the plasma protein binding rate of glytrexate between different mass concentrations in the same species.

[2] = Stability on incubation in human plasma at 37°C; type: in vitro ADME; details: up to 3 h, 1 μg/ml
Procedure: (§4) The test tube containing the drug concentration was incubated in a constant temperature water bath at 37°C. Each sample was obtained at 0, 0.5, 1.0, 1.5, 2.0, and 3.0 h, and the drug concentration was measured.
Fifty microliters of the above solution was accurately drawn at different incubation time points, and 155 μl of ice-cold methanol (1% formic acid) and 5 μl of IS solution were added. The mixture was vortexed for 60 s and centrifuged at 14,000 rpm for 10 min. Then, 165 μl of supernatant was transferred to a new tube and evaporated to dryness under a gentle stream of nitrogen at room temperature. The residue was dissolved in 50 μl 20% methanol (1% formic acid), vortexed for 60 s and centrifuged at 14,000 rpm for 10 min. An appropriate amount of the supernatant was placed into the sample vial, and analyzed. Each experiment was repeated 3 times.
The plasma sample concentration was 1 μg/ml, and the concentration of the other samples was 100 μg/ml.
(§5) All samples were analyzed using the established LC‒MS/MS method, and MultiQuant 3.0 software was used for data processing. The glytrexate concentration at each time point was calculated, the remaining percentage was calculated, and the concentration change trend was analyzed.

[3] = tested on: KB tumor cells; parameters: method as in Xing et al., 2017; details: ref Xing et al., 2017, read-out: IC50, inhibitory action on KB tumor cells; cited from earlier work
[4] = Metabolic stability in human liver microsomes; type: in vitro ADME; details: 37°C
Procedure: as §4
The metabolic stability of glytrexate was determined by incubation with human liver microsomes at 37°C. The reaction in the incubation system containing 10 μl of glytrexate (1 mg/ml), 50 μl of liver microsomes (1 mg/ml), and 10 μl of PBS (pH 7.4) was initiated by the addition of 30 μl of NADPH after 5 min of preincubation. The total incubation volume was 100 μl. The reaction was terminated at predefined time points (0, 0.5, 1, 1.5, 2, and 3 h). The incubations were conducted in triplicate.
Fifty microliters of the above solution was accurately drawn at different incubation time points, and 155 μl of ice-cold methanol (1% formic acid) and 5 μl of IS solution were added. The mixture was vortexed for 60 s and centrifuged at 14,000 rpm for 10 min. […] An appropriate amount of the supernatant was placed into the sample vial, and analyzed. […]
as §5

[5] = Stability on incubation in artificial gastrointestinal fluids at 37°C; type: in vitro ADME; details: up to 3 h, 100 μg/ml
Procedure: Blank artificial gastric fluid: hydrochloric acid (2.75 mol/L, 16.4 ml) was diluted with 800 ml of water, adjusted to the pH 1.3 with 0.1 mol/L hydrochloric acid solution, diluted with water and diluted to 1000 ml.
Artificial gastric fluid: hydrochloric acid (2.75 mol/L, 16.4 ml) was diluted with 800 ml of water, and then 10 g of pepsin was added and shaken well until dissolved. The pH was adjusted to 1.3 with 0.1 mol/L hydrochloric acid solution, and then the artificial gastric fluid solution was diluted with water to 1000 ml.
Blank artificial intestinal fluid: potassium dihydrogen phosphate (6.8 g) was diluted with 500 ml of water, and shaken until dissolved. The pH was adjusted to 6.8 with 0.1 mol/L sodium hydroxide solution, and the solution was diluted with water to 1000 ml. […]
The test tube containing the drug concentration was incubated in a constant temperature water bath at 37°C. Each sample was obtained at 0, 0.5, 1.0, 1.5, 2.0, and 3.0 h, and the drug concentration was measured. […]
Fifty microliters of the above solution was accurately drawn at different incubation time points, and 155 μl of ice-cold methanol (1% formic acid) and 5 μl of IS solution were added. […] An appropriate amount of the supernatant was placed into the sample vial, and analyzed. […]
All samples were analyzed using the established LC‒MS/MS method, and MultiQuant 3.0 software was used for data processing. […]

[6] = Storage stability of glytrexate in rat plasma (short-term, autosampler, freeze-thaw, long-term); type: in vitro ADME
Procedure: For short-term and long-term stability, plasma samples (LQC and HQC) were kept at room temperature for 8 h and at −20°C for 14 consecutive days, respectively. To evaluate the freeze-thaw stability, plasma samples (n = 6) were investigated through three cycles from −20°C to 25°C, and the stability of the postpreparative samples after 8 h was evaluated in autosampler vials at 4°C. The results were evaluated by calculating the peak area ratio (glytrexate/IS) of the stability samples. If glytrexate is stable in rat plasma, the accuracy (RE) should be within ±15% and the precision (RSD) < 15%.

[7] = Plasma protein binding rate by ultrafiltration, rat plasma; type: in vitro ADME
Procedure: as §1, §2, §3

[8] = 5 μg/ml, 37°C, 30 min incubation, ultrafiltration
[9] = 10 μg/ml, 37°C, 30 min incubation, ultrafiltration
[10] = 20 μg/ml, 37°C, 30 min incubation, ultrafiltration
[11] = 4°C for 8 h in rat plasma, spiked 5 ng/ml
[12] = 4°C for 8 h in rat plasma, spiked 1600 ng/ml
[13] = room temperature for 8 h in rat plasma, spiked 5 ng/ml
[14] = room temperature for 8 h in rat plasma, spiked 1600 ng/ml
[15] = three freeze‒thaw cycles in rat plasma, spiked 5 ng/ml
[16] = three freeze‒thaw cycles in rat plasma, spiked 1600 ng/ml
[17] = −20°C for 14 days in rat plasma, spiked 5 ng/ml
[18] = −20°C for 14 days in rat plasma, spiked 1600 ng/ml

Nc1nc2[nH]c(CC(=O)NCC(=O)N[C@@H](CCC(=O)O)C(=O)O)cc2c(=O)[nH]1 [glytrexate, (S)-2-{2-[2-(2-amino-4-oxo-4,7-dihydro-3H-pyrrolo [2,3-d]pyrimidin-6-yl)-acetylamino]-acetylamino}-pentanedioic acid]
fraction unbound at 30 min, 5 μg/ml [1, 8]: 0.758
fraction unbound at 30 min, 10 μg/ml [1, 9]: 0.754
fraction unbound at 30 min, 20 μg/ml [1, 10]: 0.807
fraction unbound ([1]; over 5, 10 and 20 μg/ml): ~0.75
stability in human plasma compared with other matrices (in words) [2]: more stable in human plasma than in human liver microsomes and artificial gastrointestinal fluid; also recorded: more stable in human plasma than in rat plasma and in human liver microsomes; also recorded: greatest amount of remaining glytrexate was found in human plasma
IC50 [3]: 0.078 nM
metabolic stability in human liver microsomes (in words) ([4]; up to 3 h): good microsomal stability
half-life at 0.1 mg/ml ([4]; human, liver microsomes, pH 7.4, NADPH, regression of ln remaining vs incubation time, read-out: half-life (t1/2) in human liver microsomes): 1.83 h
stability in artificial gastrointestinal fluid (in words) [5]: did not remain stable
% Deviation after storage [6, 11]: −11.50%
Mean measured concentration after storage [6, 11]: 4.43 ± 0.21 ng/mL
% Deviation after storage [6, 12]: −2.11%
Mean measured concentration after storage [6, 12]: 1566.21 ± 100.13 ng/mL
% Deviation after storage [6, 13]: −10.23%
Mean measured concentration after storage [6, 13]: 4.49 ± 0.40 ng/mL
% Deviation after storage [6, 14]: −0.82%
Mean measured concentration after storage [6, 14]: 1586.82 ± 103.89 ng/mL
% Deviation after storage [6, 15]: −2.27%
Mean measured concentration after storage [6, 15]: 4.89 ± 0.68 ng/mL
% Deviation after storage [6, 16]: −1.81%
Mean measured concentration after storage [6, 16]: 1571.07 ± 105.54 ng/mL
% Deviation after storage [6, 17]: −6.40%
Mean measured concentration after storage [6, 17]: 4.68 ± 0.40 ng/mL
% Deviation after storage [6, 18]: −2.01%
Mean measured concentration after storage [6, 18]: 1567.82 ± 112.14 ng/mL
fraction unbound at 30 min, 5 μg/ml [7, 8]: 0.863
fraction unbound at 30 min, 10 μg/ml [7, 9]: 0.813
fraction unbound at 30 min, 20 μg/ml [7, 10]: 0.947
fraction unbound at 30 min ([7]; over 5, 10 and 20 μg/ml): > 0.7
